19 compounds from PMC11123948, “Leucoverdazyls as Novel Potent Inhibitors of Enterovirus Replication” (Pathogens, 2024) can be followed below.

Counter-ions that a name gives are not always drawn.

The subject of one data set is CVA16. Description: Viral yield reduction assay, CVA16. It counts as cell-based, Coxsackievirus A16 (clinical isolate). As to conditions: CVA16, RD cells.
Data set [1] has as its system Influenza A/Puerto Rico/8/34. The data set can be described thus: Viral yield reduction assay, influenza A. It counts as cell-based, Influenza A virus (strain A/Puerto Rico/8/1934 (H1N1)). Particulars: Influenza A virus, Influenza A/Puerto Rico/8/34, MDCK cells.
The subject of the next data set is CVB4 Powers. The data set can be described thus: Thermostability assay. Also on record: species or system Coxsackievirus B4 (CVB4, strain Powers). Particulars: compound 10 µg/mL, thermal gradient 37–55 °C for 2 min. Here is the method: The thermostability assay was performed as described previously. The CVB4 strain was chosen because it is sensitive to the pleconaril used in this assay as a reference compound. The compound concentration used in the assay was selected according to the results of preliminary thermostability assays. Briefly, CVB4 Powers (10^4 TCID50) was pre-incubated with the compound (10 µg/mL), pleconaril (10 µg/mL), or an equal volume of MEM (virus control) for 30 min at +37 °C in sterile thin-walled 200 μl PCR-tubes (5 tubes per each treatment condition) in a BioRad CFX PCR-machine (BioRad Laboratories, Inc., Hercules, CA, USA). Then, a thermal gradient of 37–55 °C for 2 min, followed by rapid cooling to 4 °C, was applied. Subsequently, the infectious viral activities of the samples were quantified by end-point dilution assay.

In the next data set the test system is HSV1. Description: microbe, parasite or virus in culture. As to conditions: Human alphaherpesvirus 1; HSV1, Vero cells, viral yield reduction. It counts as cell-based, herpes simplex virus type 1.
The subject of a further data set is ECHO30. The data set can be described thus: Viral yield reduction assay, ECHO30. The format is cell-based, ECHO30 (clinical isolate). As to conditions: ECHO30, RD cells.
The next data set has as its system Vero cells. Description: Cytotoxicity assay (MTT) in Vero cells.
The next data set relates to Ad5. Description: microbe, parasite or virus in culture. As to conditions: Human mastadenovirus C, A549. It counts as cell-based, human adenovirus type 5.
For another data set, the system named is CVB3 WT. Description: microbe, parasite or virus in culture. Particulars: Enterovirus B, CVB3, Vero. It counts as cell-based, Coxsackievirus B3 (Nancy strain), passaged without 1a.
Data set [2] in a line: in vitro. As to conditions: human.
Data set [3] can be described thus: in vitro. Particulars: African green monkey; for CC50 at 24 h: Vero cells.
Protocol: Permissive cells were seeded in 96-well plates in Eagle’s minimal essential medium (MEM) supplemented with 10% FBS. After 24 h, the medium was removed, and the wells were washed with saline. Compounds w [...
In the next data set the test system is CVB3 R. Description: microbe, parasite or virus in culture. It counts as cell-based, Coxsackievirus B3 (Nancy strain), passaged with 1a. Particulars: Enterovirus B, CVB3, Vero.
The test system of a further data set is CVB3 virus. The data set can be described thus: Transmission electron microscopy of CVB3-infected Vero cells. As to conditions: MOI 100, 100 µM 1a, 3 h, TEM.
A further data set concerns CVA24. Description: Viral yield reduction assay, CVA24. Particulars: CVA24, RD cells. The format is cell-based, Coxsackievirus A24 (clinical isolate).
Data set [4] can be described thus: Cytotoxicity assay (MTT) in RD cells. Particulars: human, 24 h incubation with compound only. It counts as cell-based.
The next data set relates to SARS-CoV-2. The data set can be described thus: Viral yield reduction assay, SARS-CoV-2. It counts as cell-based, SARS-CoV-2 virus (Wuhan strain). As to conditions: Severe acute respiratory syndrome coronavirus 2, SARS-CoV-2, Vero cells.
The next data set has as its system CVB3-WT and -R variants. Description: Growth kinetics of CVB3 WT and R variants with and without 1a. It counts as cell-based, Coxsackievirus B3. Particulars: Vero cells, MOI 0.001, 1a 7 ug/mL, up to 72 h.
Data set [5] is described as follows: in vitro. As to conditions: dog.
Another data set has as its system CVB4 (strain Powers). Description: Viral yield reduction assay, CVB4. The format is cell-based, Coxsackievirus B4 (CVB4. As to conditions: Vero cells.
The test system of another data set is Coxsackie B3 virus. The data set can be described thus: microbe, parasite or virus in culture. The format is cell-based, Coxsackievirus B3 (CVB3, strain Nancy). Particulars: Coxsackie B3 virus (Nancy, original), viral yield reduction in Vero cells, 24 h.
The nature of data set [6]: Antioxidant activity, DPPH assay. The format is physicochemical. Particulars: DPPH 200 μM in methanol, 30 min at 30 °C; vitamin C as reference; result in words. Here is the method:
Antioxidant activity was evaluated by spectrophotometric monitoring of the hydrogen transfer reaction with a stable chromogen radical, 2,2-diphenyl-1-picrylhydrazyl (DPPH, Sigma-Aldrich, St. Louis, MO, USA), using vitamin C (Vc) as described before. A solution of DPPH in methanol with a concentration of 200 μM was added to a solution of dihydrotetrazines in the same solvent (concentrations 5 to 50 μM). The reaction vessel (test tube) was wrapped in foil and kept for 30 min at 30 °C, and the optical density was measured at λ 517 nm (DPPH absorption maximum). The antioxidant activity (AO) was calculated by the formula AO = (1 − Atest/Acontr) × 100%, where Atest is the optical density of a solution containing a compound to be tested and DPPH, and Acontr is the optical density of a solution containing DPPH alone. The half-inhibitory concentration (IC50) corresponding to the reduction of the initial DPPH concentration by 50% was determined from the DPPH inhibition percentage plotted against concentrations of compounds 2 through 5 (Figure 1) using the OriginPro 8.5 program (OriginLab Corporation, Northampton, MA, USA) (Model DoseResp).

The subject of data set [7] is Influenza B/Florida/04/06. Description: microbe, parasite or virus in culture. It counts as cell-based, influenza B virus (strain B/Florida/04/06, Yamagata lineage). As to conditions: MDCK.
For the next data set, the system named is CVB4. The data set can be described thus: Time-of-addition assay. Particulars: CVB4 in Vero cells, 1a 5 μg/mL; for Interval of addition with highest inhibitory activity: pleconaril 10 μg/mL, titer at 8 h. The format is cell-based, Coxsackievirus B4 (CVB4, strain Powers).
A further data set has as its system CVB5. The data set can be described thus: Viral yield reduction assay, CVB5. The format is cell-based, Coxsackievirus B5 (clinical isolate). Particulars: CVB5, Vero cells.
The next data set has as its system RD cells. Description: Cytotoxicity assay (MTT) in RD cells. As to conditions: 24 h incubation with compound only. The format is cell-based.

Protocol for CVB3 virus: Vero cells in 6-well plates were incubated with CVB3 virus, MOI = 100, at 4 °C for 1 h. Unbound virions were removed by washing the cells twice with cold MEM; a medium containing 100 µM of 1a was added. […] Cells were incubated for 3 h at 36 °C in 5% CO2. In wells with control virus, MEM without 1a was added. After incubation, cells were collected from the wells, transferred into tubes, and centrifuged at 2000× g for 15 min. Cell pellets were fixed with 1.5% glutaraldehyde in PBS overnight, followed by post-fixation with 1.5% OsO4 for 1 h and uranyl acetate for 45 min at room temperature. They were then dehydrated in graded acetone and embedded in Epon/Araldit resin (Serva Feinbiochemica, Heidelberg, Germany). Thin sections (90 nm) were stained with lead citrate and examined in a JEM-100S electron microscope (JEOL, Tokyo, Japan).

What is called IC50 is the concentration at which inhibition is half-maximal. As for `c1ccc(C2=NN(c3nc4ccccc4s3)CN(c3ccccc3)N2)cc1` [Compound 1a], the IC50 came out at 0.8 ± 0.2 µM in the data set on CVA16 (Enterovirus A); 38.7 ± 2.9 µM in data set [1]; 46.3 ± 4.4 µM with HSV1; 1.6 ± 0.4 µM with ECHO30; 43.1 ± 3.8 µM in the data set on Ad5; 0.48 µM with CVB3 WT. Also, the IC50 with CVB3 R turned out to be 12.9 µM; in the data set on CVA24 (Enterovirus C), 0.9 ± 0.3 µM; with SARS-CoV-2, 4.5 ± 1.2 µM; in the data set with CVB4 (strain Powers) (Enterovirus B) it was 1.7 ± 0.5 µM; with Coxsackie B3 virus, 1.8 ± 0.3 µM; in the data set on Coxsackie B3 virus (Enterovirus B, B3, Vero) it was 2.7 µM. Further, the IC50 turned out to be 40.5 ± 5.1 µM in [7] and 1.5 ± 0.3 µM in the data set on CVB5 (Enterovirus B). Besides, in the data set with CVB4 Powers, the “Thermostabilizing effect on virion (infectious particles after heating)” value is “no infectious particles were detected when heated above 45 degrees”. In addition, the CC50 in the data set on Vero cells (SARS-CoV-2 row, 48 h or 24 h depending on virus life cycle, MTT) stood at 656 ± 70.4 µM; in “in vitro [2]”, 501 ± 45.7 µM; in the data set “in vitro [3]” it was 451 ± 51.2 µM; in “in vitro [5]”, 850 ± 78.3 µM. Besides, the results for the CC50 at 24 h (in “in vitro [3]”; in [4]) were 620 ± 52.7 µM and 673 ± 60.1 µM, respectively. The “Examined cells with no replication organelles visible” value in the data set on CVB3 virus is reported as 47 out of 49. For the same compound, the “Propagation of CVB3 strains in presence of 1a” value in the data set on CVB3-WT and -R variants is given as “the resistant strain was able to effectively propagate in contrast to the wild-type virus”. The “Antioxidant activity (DPPH assay)” value in [6] is recorded as “most pronounced antioxidant activity”. Also, the “Inhibition of viral replication on late addition” value in the data set with CVB4 (added later than 6 h after adsorption of the virus) is on record as “Inhibition of viral replication was not observed”. For the same compound, the “Interval of addition with highest inhibitory activity” value in the data set with CVB4 is on record as “from −2 to 4 h post-infection”.
For the compound `COc1ccc(N2CN(c3nc4ccccc4s3)N=C(c3ccccc3)N2)cc1` [Compound 1b], the CC50 at 24 h in “in vitro [3]” was over 1350 µM. This compound yielded an IC50 with Coxsackie B3 virus (Enterovirus B, B3, Vero) of 5.4 ± 1.1 µM. For the same compound, the “Antioxidant activity (DPPH assay)” value in data set [6] was “most pronounced antioxidant activity”.
Regarding `Clc1ccc(N2CN(c3nc4ccccc4s3)N=C(c3ccccc3)N2)cc1` [Compound 1c], the CC50 at 24 h in the data set “in vitro [3]” was 321 ± 28.2 µM. The compound also displayed an IC50 in the data set on Coxsackie B3 virus (Enterovirus B, B3, Vero) of 7.4 ± 2.2 µM.
The corresponding values for `Brc1ccc(N2CN(c3nc4ccccc4s3)N=C(c3ccccc3)N2)cc1` [Compound 1d] are 886 ± 90.4 µM and 6.2 ± 1.9 µM.
Compound `CC1N(c2nc3ccccc3s2)N=C(c2ccccc2)NN1c1ccccc1` (stereo not shown) [Compound 2a] returned a CC50 at 24 h in “in vitro [3]” of over 325 µM. The IC50 in the data set with Coxsackie B3 virus (Enterovirus B, B3, Vero) was 6.49 ± 0.8 µM.
`COc1ccc(N2NC(c3ccccc3)=NN(c3nc4ccccc4s3)C2C)cc1` (stereo not shown) [Compound 2b] gave a CC50 at 24 h in “in vitro [3]” of 2050 ± 198 µM. The IC50 in the data set with Coxsackie B3 virus (Enterovirus B, B3, Vero) worked out at 24.1 ± 3.2 µM.
The corresponding values for `CCc1ccc(N2NC(c3ccccc3)=NN(c3nc4ccccc4s3)C2C)cc1` (stereo not shown) [Compound 2c] are over 303 µM and over 121 µM.
`CC1N(c2nc3ccccc3s2)N=C(c2ccccc2)NN1c1ccc(F)cc1` (stereo not shown) [Compound 2d] registered a CC50 at 24 h in the data set “in vitro [3]” of 49.6 ± 3.7 µM. For the same compound, the IC50 with Coxsackie B3 virus (Enterovirus B, B3, Vero) is over 49.6 µM.
The compound `CC1N(c2nc3ccccc3s2)N=C(c2ccccc2)NN1c1ccc(Br)cc1` (stereo not shown) [Compound 2e] displayed a CC50 at 24 h in the data set “in vitro [3]” of 69.1 ± 5.9 µM. In addition, the IC50 in the data set on Coxsackie B3 virus (Enterovirus B, B3, Vero) is over 69.1 µM.
Compound `CCC1N(c2nc3ccccc3s2)N=C(c2ccccc2)NN1c1ccccc1` (stereo not shown) [Compound 3a] showed a CC50 at 24 h in “in vitro [3]” of over 313 µM. Moreover, the IC50 in the data set with Coxsackie B3 virus (Enterovirus B, B3, Vero) was over 125 µM.
The corresponding values for `CCC1N(c2nc3ccccc3s2)N=C(c2ccccc2)NN1c1ccc(OC)cc1` (stereo not shown) [Compound 3b] are 2330 ± 25.3 µM and 60.1 ± 7.2 µM.
The corresponding values for `CCC1N(c2nc3ccccc3s2)N=C(c2ccccc2)NN1c1ccc(F)cc1` (stereo not shown) [Compound 3c] are 360 ± 41.7 µM and 71.9 ± 6.4 µM.
In turn, `CCC1N(c2nc3ccccc3s2)N=C(c2ccccc2)NN1c1ccc(Br)cc1` (stereo not shown) [Compound 3e] had a CC50 at 24 h in “in vitro [3]” of 946 ± 89.6 µM. Further, the IC50 with Coxsackie B3 virus (Enterovirus B, B3, Vero) is over 210 µM.
The corresponding values for `C=CC1N(c2nc3ccccc3s2)N=C(c2ccccc2)NN1c1ccccc1` (stereo not shown) [Compound 4a] are over 315 µM and over 126 µM.
In turn, `C=CC1N(c2nc3ccccc3s2)N=C(c2ccccc2)NN1c1ccc(OC)cc1` (stereo not shown) [Compound 4b] yielded a CC50 at 24 h in the data set “in vitro [3]” of over 293 µM. The same compound showed an IC50 in the data set with Coxsackie B3 virus (Enterovirus B, B3, Vero) of over 117 µM.
The corresponding values for `C=CC1N(c2nc3ccccc3s2)N=C(c2ccccc2)NN1c1ccc(Cl)cc1` (stereo not shown) [Compound 4c] are over 291 µM and 27.9 ± 3.3 µM.
`C=CC1N(c2nc3ccccc3s2)N=C(c2ccccc2)NN1c1ccc(I)cc1` (stereo not shown) [Compound 4d] gave a CC50 at 24 h in the data set “in vitro [3]” of 1530 ± 17.2 µM. The IC50 with Coxsackie B3 virus (Enterovirus B, B3, Vero) turned out to be 51.6 ± 6.4 µM.
For the compound `N=C(N)N` [Guanidine hydrochloride, reference compound], the IC50 in the data set on CVA16 was 337 ± 28.3 µM; in the data set on ECHO30, 126 ± 18.2 µM; with CVA24, 314 ± 20.1 µM; with CVB4 (strain Powers) it was 496 ± 26.5 µM; with CVB5, 474 ± 33.4 µM. Moreover, the CC50 with Vero cells (24 h incubation with compound only, MTT (Table 2)) was over 5240 µM; in the data set on RD cells it was over 10500 µM.
`Cc1cc(CCCOc2c(C)cc(-c3noc(C(F)(F)F)n3)cc2C)on1` [Pleconaril, reference compound]: the “Thermostabilizing effect on virion (infectious particles after heating)” value in the data set with CVB4 Powers was “had a thermostabilizing effect”. In “in vitro [3]”, the CC50 at 24 h was found to be 656 ± 58.4 µM. The same compound yielded an IC50 with Coxsackie B3 virus (Enterovirus B, B3, Vero) of 15.2 ± 1.6 µM. The “Interval of addition with highest inhibitory activity” value in the data set with CVB4 is “between −2 and 0 h”.
